Laboratory results: EP0755382B1, “QUINOLONE DERIVATIVE FOR TREATMENT OF URINARY INCONTINENCE” (AstraZeneca AB, priority 1994, dated 1995)
Blank lines part the entries; values can stand above or below the compound they belong to.

Legend:
intestinal smooth muscle = conditions: Vitolinya et al, Khim.-Farm. Zh., 15(1), 39-42, 1981; cited from earlier work
[1] = test system: guinea pig detrusor strips; test: second in vitro test: relaxation of guinea pig bladder detrusor strips contracted with 80 mM KCl; type: cell-based, guinea pigs; conditions: for potency in the second test compared with the first test: 80 mM KCl (second test) versus 15 mM KCl (first test)
Procedure: This second in vitro test is similar to the one described above with regard to tissue preparation and data acquisition. However, the following exceptions are noted. In this second test, the contraction of the detrusor strips during priming and after the equilibration period is achieved with 80 mM instead of 15 mM KCl (total concentration in the bath).
Typical calcium channel blockers like nifedipine, nimodipine, isradipine, and verapamil are able to relax and reduce the myogenic activity of guinea pig detrusor strips in both tests by virtue of their blocking action on calcium channels.

bladder = test: in vivo test in conscious catheterized rats: interval between bladder contractions, heart rate and MAP after oral dosing; parameters: species or system Wistar rats; conditions: dosed orally, 3 mg/kg
Procedure: Hale Wistar rats (400 - 500 g) are anesthetized with 50 mg/kg Nembutal, i.p. For each rat, the abdominal region and the front and back of the neck are shaved and povidone-iodine is applied to the skin. For carotid catheterization, the left carotid artery is exposed via a small ventral cervical incision. The exposed area is flushed with a 2% lidocaine HCl solution to relax the vessel. The catheter, filled with 0.9% saline, is introduced approximately 2.4 cm into the artery so that its tip resided in the aortic arch. The distal end of the catheter is exteriorized at the nape of the neck, filled with heparin (1000 units/ml) and heat sealed. For bladder catheterization, the bladder is exposed through a midline abdominal incision. […]
The rats are weighed, orally sham-dosed (dosing needle introduced, but no fluid expelled), and transvesical saline infusion (.18 ml/min) is begun and continued throughout the experiment. Variations in blood pressure, heart rate, intravesical pressure and urine output are recorded on either a Grass Polygraph or a Gould TA4000 recording system. […] At this point, a basal level of each experimental parameter is recorded and the rats are administered by oral gavage the appropriate dose of compound (in a 75% PEG 400 - saline vehicle) in concentrations such that the volume is 1 ml/kg body weight. […]

[2] = test system: guinea pig detrusor strips; test: first in vitro test: relaxation of guinea pig bladder detrusor strips contracted with 15 mM KCl; type: cell-based, guinea pigs; conditions: Cavia porcellus
Text: The actions of the compound as a smooth muscle relaxant useful as a therapeutic agent for the treatment of urinary incontinence through its action to open potassium channels and hyperpolarize the membrane potential in the bladder detrusor smooth muscle can be shown using suitably designed in vitro tests, such as the one described following. […] "IC50" is a well understood term and means the concentration of test compound which causes a 50% decrease in the in vitro contraction of the bladder tissue described in the following test.
Hale albino Hartley guinea pigs (450-500g) are sacrificed by carbon dioxide induced asphyxiation and quickly exsanguinated. The lower abdominal cavity is opened and the urinary bladder isolated. The bladder is cleaned of surrounding connective and adipose tissue, and the portion above the ureteral orifices is removed and washed in Krebs-Henseleit buffer solution of the following composition (in mH): NaCl 118.0, KCl 4.7, […] 1.2, KH2PO4 1.2, CaCl2 2.5, NaHCO3 25.0 and d-glucose 11.1. The solution is warmed to 37°C and gassed with 95% O2 and 5% CO2. […]
When the tissue relaxes to a steady state after the final washing, 15 mM KCl is again applied. […] The effect of the compound at each dose is expressed as % of the maximum inhibitory response, which is further normalized with respect to the corresponding effect of the compound vehicle control. […]

urinary incontinence = conditions: preliminary clinical trial; Nurse et al., British Journal of Urology (1991), 68, 27-31; cited from earlier work

Compound: CC1=C(C#N)C(c2ccccc2)C2=C(CC(C)(C)CC2=O)N1 (centres unmarked) [3-Cyano-4-phenyl-2,7,7-trimethyl-4,6,7,8-tetrahydro-5(1H)-quinolone]
effect on the cardiovascular system (intestinal smooth muscle): hypotensive properties | spasmogenic effect of acetylcholine and barium chloride on intestinal smooth muscle (intestinal smooth muscle): capable of blocking the spasmogenic effect

IC50 ([1]; Cavia porcellus, second test, 80 mM KCl): 41.1 µM | IC50 ([2]; concentration causing a 50% decrease in the in vitro contraction of the bladder tissue): 4200 nM
Compound: N#Cc1cccc([C@@H]2C=C(C(F)(F)F)NC3=C2C(=O)CCC3)c1 [The compound, (S)-(-)-4-(3-Cyanophenyl)-2-trifluoromethyl-4,6,7,8-tetrahydro-5(1H)-quinolone]
activity and selectivity for the bladder (bladder): active and selective for the bladder without significant cardiovascular effects

IC50 ([2]; first test): 600 to 900 nM
Compound: CC1(C)Oc2ccc(C#N)cc2C(N2CCCC2=O)C1O (centres unmarked) [cromakalim]
relaxant activity ([1]; second test, 80 mM KCl, at concentrations as high as 30 µM): insignificant relaxant activity | treatment of urinary incontinence (urinary incontinence): effective

Compound: COC(=O)C1=C(C)NC(C)=C(C(=O)OC(C)C)C1c1cccc2nonc12 (centres unmarked) [isradipine]
potency in the second test compared with the first test [1]: more potent in the second test

Compound: COc1ccc(Cc2nccc3cc(OC)c(OC)cc23)cc1OC [papaverine]
sustained tension after high KCl stimulation ([1]; 80 mM KCl, 300 µM): totally abolished

Compound: COc1ccc(CCN(C)CCCC(C#N)(c2ccc(OC)c(OC)c2)C(C)C)cc1OC (centres unmarked) [verapamil]
potency in the second test compared with the first test [1]: more potent in the second test
